Data set [1] concerns Mouse polyclonal antibody Rapa-DVS #7. Briefly: Inhibition ELISA of mouse polyclonal serum Rapa-DVS #7. The class given is binding. Also on record: concentration or dose not given beside the values. The method, then:
(§1) Inhibition ELISA Protocol
(§2) 1. Use Falcon® Pro-bind™ inununoplates.
(§3) 2. Dilute coating antigen to 1 μg/mL in carbonate-bicarbonate buffer.
(§4) Add 100 μL per well and incubate overnight at 4° C.
(§5) 3. On the same day prepare inhibiting antigen tubes. Aliquot antibodies into glass test tubes. Prepare appropriate antigen concentration in ethanol and add to aliquoted antibody at 10 μL ethanol solution/250 μL antibody.
(§6) Vortex tubes and incubate overnight at 4° C.
(§7) 4. Shake out wells and wash 3× with 200 μL PBS/0.05% TWEEN™ (polyoxyethylene-sorbitol) (v/v) per well.
(§8) 5. Add 200 μL blocking buffer per well (PBS/2% BSA (w/v)).
(§9) Incubate 60 min at room temperature.
(§10) 7. Transfer contents of inhibition tubes to antigen-coated plate, 100 μL per well. Incubate 60 min at 37° C.
(§11) 9. […] Add 100 μL per well and incubate at 37° C. for 60 min.
(§12) 11. […] Add 100 μL per well and incubate in the dark at room temperature. Absorbance can be read at 405 nm at approximately 15-min intervals.

Another data set relates to MoAb R-6-3. Briefly: Inhibition ELISA of MoAb R-6-3. The data set is classed as binding, mouse. The method, then:
as §1, §2, §3, §4, §5, §6, §7, §8, §9, §10, §11, §12

Another data set concerns MoAb R-4-7. The data set is described as follows: Inhibition ELISA of MoAb R-4-7. The class given is binding, mouse. The method, then: as §1, §2, §3, §4, §5, §6, §7, §8, §9, §10, §11, §12
Another data set relates to MoAb R-3-1. The data set is described as follows: Inhibition ELISA of MoAb R-3-1. The data set is classed as binding, mouse. Also on record: concentration or dose not given beside the values. To be noted: tissue culture supernatant. How it is done: as §1, §2, §3, §4, §5, §6, §7, §8, §9, §10, §11, §12
(§13) To further characterize the reactivity of monoclonal antibodies from various clones, inhibition ELISA were performed.

A further data set has as its system MoAb R-2-2. Briefly: Inhibition ELISA of MoAb R-2-2. The class given is binding, mouse. Also on record: concentration or dose not given beside the values. Particulars: tissue culture supernatant. How it is done: as §1, §2, §3, §4, §5, §6, §7, §8, §9, §10, §11, §12, §13
The test system of data set [2] is Mouse polyclonal antibody Rapa-DVS #9. The data set is described as follows: Inhibition ELISA of mouse polyclonal serum Rapa-DVS #9. The data set is classed as binding. Also on record: concentration or dose not given beside the values. The method, then: as §1, §2, §3, §4, §5, §6, §7, §8, §9, §10, §11, §12
Data set [3] relates to Chicken polyclonal antibody (IgY, Rapa-42-DVS-KLH immunogen). Briefly: Inhibition ELISA of chicken IgY prep. Also on record: concentration or dose not given beside the values. Particulars: Rapa antigen coated ELISA plate. The class given is binding. The method, then:
as §1, §2, §3, §4, §5, §6, §7, §8, §9, §10, §11, §12

A further data set has as its system MoAb R-6-2. Briefly: Inhibition ELISA of MoAb R-6-2. The class given is binding, mouse. How it is done:
as §1, §2, §3, §4, §5, §6, §7, §8, §9, §10, §11, §12

A further data set has as its system MoAb R-4-1. Briefly: Inhibition ELISA of MoAb R-4-1. The class given is binding, mouse. The method, then:
as §1, §2, §3, §4, §5, §6, §7, §8, §9, §10, §11, §12

Another data set relates to MoAb R-5-3. The data set is described as follows: Inhibition ELISA of MoAb R-5-3. The class given is binding, mouse. How it is done:
as §1, §2, §3, §4, §5, §6, §7, §8, §9, §10, §11, §12

Another data set deals with MoAb R-1-1. Briefly: Inhibition ELISA of MoAb R-1-1. The class given is binding, mouse. Also on record: concentration or dose not given beside the values. Particulars: tissue culture supernatant. How it is done:
as §1, §2, §3, §4, §5, §6, §7, §8, §9, §10, §11, §12, §13

The next data set has as its system MoAb R-1-5. Briefly: Inhibition ELISA of MoAb R-1-5. The class given is binding, mouse. Also on record: concentration or dose not given beside the values. To be noted: tissue culture supernatant. The method, then:
as §1, §2, §3, §4, §5, §6, §7, §8, §9, §10, §11, §12, §13

In data set [4] the test system is Rabbit #1 polyclonal antibody (Rapa-42-DVS-KLH immunogen). Briefly: Inhibition ELISA of rabbit #1 polyclonal serum. The class given is binding. Also on record: concentration or dose not given beside the values. To be noted: Rapa antigen coated ELISA plate. The method, then:
as §1, §2, §3, §4, §5, §6, §7, §8, §9, §10, §11, §12

Data set [5] concerns Mouse polyclonal antibody Rapa-27 #12 (Rapa-27-ox-DVS-KLH immunogen). Briefly: Inhibition ELISA of mouse polyclonal serum Rapa-27 #12. Also on record: concentration or dose not given beside the values. Particulars: binding to Rapa-27-HSA. The method, then: as §1, §2, §3, §4, §5, §6, §7, §8, §9, §10, §11, §12
Data set [6] is described as follows: Relative concentrations of Rapa metabolites in pooled whole blood patient samples (LC/MS). The data set is classed as in vivo. To be noted: Rapa = 1. The source says:
No individual metabolite is found at a concentration greater than 20% of the Rapa parent level.

The conditions of data set [7]: [14C]-rapamycin, healthy male volunteers; cited from earlier work.
A further data set has as its system lymphocytes. Briefly: In vitro mixed lymphocyte reaction (MLR) assay, two-way lymphocyte proliferation. The class given is cell-based. To be noted: Lymphocyte, 3H-thymidine incorporation. From the text:
The MLR assay is useful for identifying rapamycin metabolites with biological (immunosupressive) activity and to quantify this activity relative to the immunosuppressive activity of the parent rapamycin molecule.
An example of a two-way lymphocyte proliferation assay procedure useful for this purpose is as follows:
1. Collect blood from two individuals (20 mls each) and isolate lymphocytes using Ficoll-Paque™ (polysucrose and sodium diatrizoate) (Pharmacia Biotech).
2. Count lymphocytes at 1:10 dilution in 2% acetic acid (v/v).
3. Prepare 10 mls of each lymphocyte populations (A+B) at 1×10^6 cells/ml in DMEM/20% FCS (v/v).
4. Set up a 96 well sterile tissue culture plate, flat bottom (Sarstedt, cat # 83.1835). To each well add:
5. Aliquot 100 μl per well lymphocyte population A
6. Aliquot 100 μl per well lymphocyte population B
7. Aliquot 20 μl per well of drug (rapamycin and rapamycin metabolites M1-5) serially diluted 0 to 1000 μg/L in triplicate in DMEM with no supplements.
8. […]
10. […] Wash cells 3× with 1.0-ml sterile distilled water.
Note: All procedures are done using sterile techniques in a biological flow hood.
11. Place filters in Scintilation vials and add 1.5 mls of ScintiSafe Plus™ 50% scintillation fluid (Fisher, cat #SX-25-5).
12. Measure the amount of radioactivity incorporated in the lymphocytes using a beta counter (Micromedic System Inc., TAURUS™ Automatic Liquid Scintillation Counter) for 1.0 minute.
13. Calculate averages and standard deviations for each drug and express results as: [formula]

Results on three compounds are retold here after patent US6709873B1, “Method for production of antibodies to specific sites of rapamycin” (Isodiagnostika Inc., priority 1997, dated 2004).

Values after ≈ are worked out from the molar mass of the structure shown.

Consider `C=CC[C@@H]1/C=C(\C)C[C@H](C)C[C@H](OC)[C@H]2O[C@@](O)(C(=O)C(=O)N3CCCC[C@H]3C(=O)O[C@H](/C(C)=C/[C@@H]3CC[C@@H](O)[C@H](OC)C3)[C@H](C)[C@@H](O)CC1=O)[C@H](C)C[C@@H]2OC` [FK, FK-506], for which the “Percent inhibition of mouse polyclonal antibody Rapa-DVS #7” value in [1] stood at 5.6%. Also, the “Percent inhibition of MoAb R-6-3” value in the data set on MoAb R-6-3 stood at 53%. Besides, the “Percent inhibition of MoAb R-4-7” value in the data set with MoAb R-4-7 (tissue culture supernatant) turned out to be 4%. Moreover, the “Percent inhibition of MoAb R-3-1” value with MoAb R-3-1 came out at 1%. The “Percent inhibition of MoAb R-2-2” value in the data set with MoAb R-2-2 is on record as 16%. Also, the “Percent inhibition of mouse polyclonal antibody Rapa-DVS #9” value in [2] is recorded as 13.0%. The “Percent inhibition of Chicken polyclonal antibody” value in data set [3] is reported as 0%. Also, the “Percent inhibition of MoAb R-6-2” value with MoAb R-6-2 amounted to 64%. Moreover, in the data set on MoAb R-4-1 (tissue culture supernatant), the “Percent inhibition of MoAb R-4-1” value is given as 8%. In the data set with MoAb R-5-3 (tissue culture supernatant), the “Percent inhibition of MoAb R-5-3” value amounted to 4%. The “Percent inhibition of MoAb R-1-1” value in the data set on MoAb R-1-1 came out at 43%. In addition, the “Percent inhibition of MoAb R-1-5” value with MoAb R-1-5 is given as 33%. For the same compound, the “Percent inhibition of Rabbit #1 polyclonal antibody” value in [4] is 0%. The “Percent inhibition of mouse polyclonal antibody Rapa-27 #12” value in data set [5] was 11%.

Take `CO[C@H]1C[C@@H]2CC[C@@H](C)[C@@](O)(O2)C(=O)C(=O)N2CCCC[C@H]2C(=O)O[C@H]([C@H](C)C[C@@H]2CC[C@@H](OCCO)[C@H](OC)C2)CC(=O)[C@H](C)/C=C(\C)[C@@H](O)[C@@H](OC)C(=O)[C@H](C)C[C@H](C)/C=C/C=C/C=C/1C` [RAD]: the “Percent inhibition of MoAb R-6-3” value with MoAb R-6-3 is 58%. Also, in the data set with MoAb R-4-7, the “Inhibition of MoAb R-4-7 (in words)” value is listed as “inhibited”. Moreover, the “Percent inhibition of MoAb R-6-2” value in the data set on MoAb R-6-2 came out at 70%. Further, the “Inhibition of MoAb R-4-1 (in words)” value in the data set with MoAb R-4-1 (purified MoAb, increasing concentrations of Rapa or RAD, FIG. 3A) is listed as “inhibited”. In addition, the “Inhibition of MoAb R-5-3 (in words)” value with MoAb R-5-3 (purified MoAb, increasing concentrations of Rapa or RAD, FIG. 3B) was “inhibited”.

As to `CO[C@H]1C[C@@H]2CC[C@@H](C)[C@@](O)(O2)C(=O)C(=O)N2CCCC[C@H]2C(=O)O[C@H]([C@H](C)C[C@@H]2CC[C@@H](O)[C@H](OC)C2)CC(=O)[C@H](C)/C=C(\C)[C@@H](O)[C@@H](OC)C(=O)[C@H](C)C[C@H](C)/C=C/C=C/C=C/1C` [Rapa, Rapamycin], in data set [6], the “Relative Concentration in whole blood” value was determined as 1. The “share of the total radioactivity in blood” value in [7] is “approximately 35%”. The compound also returned an IC50 in the data set on lymphocytes of 0.48 ng/mL (≈ 0.525 nM).
